Results on 16 compounds are retold here after US8889708B2 (Boehringer Ingelheim International GmbH, priority 2013, dated 2014).

One series deals with recombinant human DPPI (Homo sapiens (Human), UniProt P53634). Nature of the series: Inhibition of Human DPPI (Cathepsin C). It counts as biochemical. The conditions noted are these: substrate Gly-Arg-AMC, 30 min room temperature. The text has this: Inhibition of Human DPPI (Cathepsin C)
Materials: Microtiterplates (Optiplate-384 F) were purchased from PerkinElmer (Prod. No. 6007270). The substrate Gly-Arg-AMC was from Biotrend (Prod.-No. 808756 Custom peptide). Bovine serum albumin (BSA; Prod. No. A3059) and Dithiothreitol (DTT; Prod. No D0632) were from Sigma. TagZyme buffer was from Riedel-de-Haen (Prod.-No. 04269), NaCl was from Merck (Prod.-No. 1.06404.1000) and morpholinoethane sulfonic acid (MES), was from Serva (Prod.-No. 29834). The DPP1 inhibitor Gly-Phe-DMK was purchased from MP Biomedicals (Prod.-No. 03DK00625). The recombinant human DPPI was purchased from Prozymex. All other materials were of highest grade commercially available.
The following buffers were used: MES buffer: 25 mM MES, 50 mM NaCl, 5 mM DTT, adjusted to pH 6.0, containing 0.1% BSA; TAGZyme Buffer: 20 mM NaH2PO4, 150 mM NaCl adjusted to pH 6.0 with HCl
The recombinant human DPPI was diluted in TAGZyme buffer to 1 U/ml (38.1 μg/ml, respectively), and then activated by mixing in a 1:2 ratio with a Cysteamine aqueous solution (2 mM) and incubating for 5 min at room temperature.
Five uL test compound (final concentration 0.1 nM to 100 μM) in aqua bidest (containing 4% DMSO, final DMSO concentration 1%) were mixed with 10 μL of DPPI in MES buffer (final concentration 0.0125 ng/μL) and incubated for 10 min. Then, 5 μL of substrate in MES buffer (final concentration 50 μM) were added. The microtiter plates were then incubated at room temperature for 30 min. Then, the reaction was stopped by adding 10 μL of Gly-Phe-DMK in MES-buffer (final concentration 1 μM). The fluorescence in the wells was determined using a Molecular Devices SpectraMax M5 Fluorescence Reader (Ex 360 nm, Em 460 nm) or an Envision Fluorescence Reader (Ex 355 nm, Em 460 nm).
Each assay microtiter plate contained wells with vehicle controls (1% DMSO in bidest+0.075% BSA) as reference for non-inhibited enzyme activity (100% Ctl; high values) and wells with inhibitor (Gly-Phe-DMK, in bidest+1% DMSO+0.075% BSA, final concentration 1 μM) as controls for background fluorescence (0% Ctl; low values).
The analysis of the data was performed by calculating the percentage of fluorescence in the presence of test compound in comparison to the fluorescence of the vehicle control after subtracting the background fluorescence using the following formula: (RFU(sample)−RFU(background))*100/(RFU(control)−RFU(background))
Data from these calculations were used to generate IC50 values for inhibition of DPPI, respectively.

For series [1], the system named is Neutrophil elastase activity in U937 cells. Nature of the series: Neutrophil elastase activity in U937 cytosolic lysate after incubation with test compound. In kind it is cell-based. Conditions: Homo sapiens, U-937, U937 cells incubated 48 hours with compound, read-out: Reduction of NE-activity in U937 cells IC50. How it is done:
Determination of Neutrophil Elastase Activity in U937 Cytosolic Lysate Preparation after Incubation with Test Compound
Optiplate 384F were purchased from PerkinElmer (Prod. No. #6007270). 24well Nunclon cell culture plates (No. 142475) and 96well plates (No. 267245) were from Nunc. Dimethylsulfoxid (DMSO) was from Sigma (Prod. No. D8418). Nonidet-P40 (NP40) was from USBiological (Prod. No. N3500)
Substrate, specific for Neutrophil elastase, was from Bachem (MeOSuc-Ala-Ala-Pro-Val-AMC; Prod. No. I-1270).
Human neutrophil elastase was from Calbiochem (Prod. No. 324681)
Tris-buffer (100 mM Tris; 1M NaCL; pH 7.5)
Tris-buffer+HSA 0.1%; Human Serum Albumin from Calbiochem (Cat#. 126658)
Serine-protease buffer (20 mM Tris; 100 mM NaCL; pH 7.5)+0.1% HSA
Serine protease lysis buffer: 20 mM Tris-HCL; 100 mM NaCl pH 7.5; +0.2% Nonidet-P40;
PBS: phosphate buffered saline, without Ca and Mg, from Gibco
U937 from ECACC (Cat. No. 85011440) cultured in suspension at 37° C. and 5% CO2.
Cell density: 0.2-1 Mio. Cells/ml.
Medium: RPMI1640 GlutaMAX (No. 61870) with 10% FCS from Gibco
Cell Seeding and Treatment:
Compounds in 100% DMSO were diluted in Medium (—FCS) with 10% DMSO and further diluted according to the experiment planned.
20 μl of the compound solution was transferred in the respective wells of the 24 well plate and diluted with 2 ml cell suspension/well containing […] (final concentration of DMSO=0.1%). Compound dilution factor=100
Compounds (up to 7 concentrations) were tested in triplicates with 3 wells for the DMSO 0.1% control, incubatet for 48 hours without medium change at 37° C., 5% CO2 and 95% relative humidity.
Cell Harvesting and Cell Lysate:
Transfer the cell suspension in 2.2 ml Eppendorf cups. Separate cells from medium by centrifugation (400×g; 5 min; RT); discard the supernatant. Resuspend in 1 ml PBS; centrifugation (400×g; 5 min; RT); wash cells twice with PBS. Add 100 μl Serin lysis buffer (ice cold) to the cell pellet; resuspend the pellet and store on ice for 15 minutes. Remove debris by centrifugation at 15000×g for 10 min at 4° C. Transfer 80-100 μl lysate supernatant in 96well plate and store immediately at −80° C.
Neutrophil Elastase Activity Assay:
Frozen lysates were thawn at 37° C. for 10 minutes and stored on ice. Protein content was determined with Bradford protein assay. Lysates were diluted to 0.2-0.5 mg/ml protein in serine protease buffer+HSA.
Standard: NE ([…] stocksolution in Tris-buffer; stored at −80° C.) was diluted in Tris-buffer+HSA to 750 ng/ml, and further serially diluted 1:2 for the standard curve.
Buffer, blank, standard and lysate samples were transferred into 384 well plate
Blank: 5 μl Tris-buffer+10 μl Tris-buffer+HSA+5 μl Substrate
Standard: 5 μl Tris-buffer+10 μl NE (diff.conc.)+5 μl Substrate
Lysate: 5 μl Tris-buffer+10 μl Lysat+5 μl Substrate
The increase in fluorescence (Ex360 nm/Em 460 nm) is determined over 30 minutes with a Molecular Device Spectramax M5 Fluorescence Reader. Kinetic Reduction (Vmax units/sec); 4 vmax points. The amount of neutrophil elastase (ng/ml) is calculated using the standard curve and the Spectramax software. The result is interpolated to ng/mg lysate protein using excel formula functions. Percent inhibition in the compound-treated lysate samples is calculated relative to the DMSO-treated control-sample (100−(compound-sample*100)/control-sample)
IC50 is calculated using Graphpad Prism; nonlinear fitting (log(inhibitor) vs. response—Variable slope).

Series [2] in a line: Metabolic stability with human liver microsomes. In kind it is in vitro ADME. Conditions: pH 7.6; pooled human liver microsomes, 37° C., 1 μM test compound, 1 mg/ml protein, NADPH; read-out: In vitro stability in human liver microsome incubations t½. How it is done:
Determination of Metabolic Stability with Human Liver Microsomes
The metabolic degradation of the test compound is assayed at 37° C. with pooled human liver microsomes. The final incubation volume of 100 μl per time point contains TRIS buffer pH 7.6 (0.1 M), magnesium chloride (5 mM), microsomal protein (1 mg/ml) and the test compound at a final concentration of 1 μM. Following a short preincubation period at 37° C., the reactions are initiated by addition of beta-nicotinamide adenine dinucleotide phosphate, reduced form (NADPH, 1 mM) and terminated by transferring an aliquot into acetonitrile after different time points. Additionally, the NADPH-independent degradation is monitored in incubations without NADPH, terminated at the last time point. The [%] remaining test compound after NADPH independent incubation is reflected by the parameter c(control) (metabolic stability). The quenched incubations are pelleted by centrifugation (10,000 g, 5 min). An aliquot of the supernatant is assayed by LC-MS/MS for the amount of parent compound.
The half-life (t½ INVITRO) is determined by the slope of the semilogarithmic plot of the concentration-time profile. The intrinsic clearance (CL_[…]) is calculated by considering the amount of protein in the incubation: CL_[…][μl/min/mg protein]=(ln 2/(half-life[min]*protein content[mg/ml]))*1,000.

recombinant human DPPI, sequence (P53634 231-394): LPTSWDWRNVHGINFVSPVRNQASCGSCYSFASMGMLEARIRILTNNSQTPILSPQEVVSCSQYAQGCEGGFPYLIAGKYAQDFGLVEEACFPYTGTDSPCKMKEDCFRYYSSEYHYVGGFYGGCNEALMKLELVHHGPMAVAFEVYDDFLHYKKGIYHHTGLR
recombinant human DPPI, sequence (P53634 395-463): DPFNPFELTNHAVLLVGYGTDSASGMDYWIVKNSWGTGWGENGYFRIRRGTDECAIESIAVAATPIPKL
recombinant human DPPI, sequence (P53634 25-134): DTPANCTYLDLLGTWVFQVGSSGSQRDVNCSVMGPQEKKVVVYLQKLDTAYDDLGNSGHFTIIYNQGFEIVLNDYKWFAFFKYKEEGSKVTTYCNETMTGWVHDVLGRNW

In the case of `N#C[C@H](Cc1ccc(-c2cccc(C(N)=O)c2)cc1F)NC(=O)C12CCC(CC1)CN2` [Example 24], the IC50 at recombinant human DPPI was found to be 11.2 nM; in series [1], 114 nM. Further, in series [2], the half-life at 1 μM was > 2.17 h.

Turning to `N#C[C@H](Cc1ccc(-c2cnn(CC3CCOCC3)c2)cc1F)NC(=O)C12CCC(CC1)CN2` [Example 29], the results for the IC50 (on recombinant human DPPI; in series [1]) were 20.2 nM and 58 nM, respectively. In addition, the half-life at 1 μM in series [2] is > 2.17 h.

With `CN1C(=O)Cc2ccc(-c3ccc(C[C@@H](C#N)NC(=O)[C@@]45CC[C@H](CN4)C5)cc3)cc21` [Example 8], on recombinant human DPPI, the IC50 was found to be 221 nM. The same measure, in the same setting: the result for `CN1C(=O)Cc2ccc(-c3ccc(C[C@@H](C#N)NC(=O)[C@]45CC[C@@H](CN4)C5)cc3)cc21` [Example 7] reads 204 nM. In the case of `CS(=O)(=O)c1ccc(-c2ccc(C[C@@H](C#N)NC(=O)C34CCC(CC3)CN4)c(F)c2)cc1C#N` [Example 18], the IC50 on recombinant human DPPI came out at 15 nM; in series [1] it was 74 nM. In addition, the half-life at 1 μM in series [2] was > 2.17 h. With `CS(=O)(=O)c1cc(-c2ccc(C[C@@H](C#N)NC(=O)C34CCC(CC3)CN4)c(F)c2)ccc1C#N` [Example 1], the IC50 in series [1] worked out at 64 nM. In series [2], the half-life at 1 μM is > 2.17 h.

Consider `CN1Cc2ccc(-c3ccc(C[C@@H](C#N)NC(=O)C45CCC(CC4)CN5)c(F)c3)cc2C1` [Example 19], for which, on recombinant human DPPI, the IC50 is 38.1 nM. Still for that read-out and setting: to `CS(=O)(=O)c1cc(-c2ccc(C[C@@H](C#N)NC(=O)[C@@]34CCO[C@@H](CN3)C4)cc2)ccc1C#N` [Example 6] belongs 202 nM; to `CS(=O)(=O)c1cc(-c2ccc(C[C@@H](C#N)NC(=O)[C@]34CCC[C@@H](CN3)C4)cc2)ccc1C#N` [Example 16], 1220 nM. For the compound `CN(C)S(=O)(=O)c1cccc(-c2ccc(C[C@@H](C#N)NC(=O)C34CCC(CC3)CN4)c(F)c2)c1` [Example 30], at recombinant human DPPI, the IC50 was 6.7 nM. The half-life at 1 μM in series [2] came out at 0.417 h. For the compound `CN1C(=O)C(C)(C)c2ccc(-c3ccc(C[C@@H](C#N)NC(=O)C45CCC(CC4)CN5)c(F)c3)cc21` [Example 25], on recombinant human DPPI, the IC50 came out at 40.7 nM. Take `CN1C(=O)Cc2ccc(-c3ccc(C[C@@H](C#N)NC(=O)C45CCOC(CCN4)C5)cc3)cc21` (stereo partly shown) [Example 9]: the IC50 on recombinant human DPPI was 228 nM. With `CS(=O)(=O)c1cc(-c2ccc(C[C@@H](C#N)NC(=O)[C@]34CC[C@@H](CN3)C4)cc2)ccc1C#N` [Example 14], the IC50 at recombinant human DPPI stood at 650 nM. Turning to `CN1C(=O)Cc2ccc(-c3ccc(C[C@@H](C#N)NC(=O)[C@]45CCC[C@@H](CN4)C5)cc3)cc21` [Example 12], the IC50 at recombinant human DPPI was found to be 428 nM. Still for that read-out and setting: to `CS(=O)(=O)c1cc(-c2ccc(C[C@@H](C#N)NC(=O)[C@@]34CC[C@H](CN3)C4)cc2)ccc1C#N` [Example 10] belongs 283 nM. Take `N#Cc1ccc(-c2ccc(C[C@@H](C#N)NC(=O)C34CCC(CC3)N4)cc2)cc1F` [Example 11]: at recombinant human DPPI, the IC50 is 284 nM. In series [2], the half-life at 1 μM is > 2.17 h.
